Reference: patent US8759402B2, “Method to inhibit ischemia and reperfusion injury” (Radical Therapeutix, priority 2002, dated 2014)
Each block holds one compound with its values, some of them ahead of it.

Columns and labels:
[1] = test system: p46 (EF-Tumt) phosphorylation; assay: Phosphorylation of mitochondrial p46 (EF-Tumt) with [γ-32P]ATP in the presence of kinase inhibitors; assay type: biochemical, rabbit
Method: For phosphorylation reactions, 100 μg of purified mitochondria was incubated in MSE buffer supplemented with 25 mmol/L HEPES-KOH [pH 7.5], 10 mmol/L magnesium acetate, 10 μmol/L ATP (cold), and 10 μCi [γ-^32P]ATP for 30 minutes at 30° C. with or without 250 μg of cytosol. The reaction mixture was subsequently centrifuged for 5 minutes at 10,000 g. The mitochondrial pellet was resuspended in 500 μL of MC buffer and washed twice. The mitochondrial proteins were resolved on a 12% polyacrylamide gel, transferred to nitrocellulose, and detected by autoradiography.
For protein kinase inhibition experiments, cytosols were incubated with the inhibitors at the indicated concentrations, then mitochondria were added and the reaction was initiated with the addition of ATP. Serine/threonine kinase inhibitors (Calbiochem, catalog No. 539572) included bisindolylmaleimide I, 10 nmol/L; H-89, 48 μmol/L; protein kinase G inhibitor, 86 μmol/L; ML-7, 0.3 μmol/L; KN-93, 0.37 μmol/L; and staurosporine, 10 nmol/L. Tyrosine kinase inhibitors (Calbiochem, catalogue No. 657021) included genistein, 25 μmol/L; PP2, 5 nmol/L; AG490, 15 μmol/L; AG1296, 1 μmol/L; and AG1478, 3 nmol/L.

isolated rat hearts = assay: Langendorff perfusion, no-flow ischemia/reperfusion of isolated rat heart (infarct size by TTC, CK release, coronary flow); details: for coronary flow after ischemia: treated hearts, reperfusion; for CK release (in words) / infarct size (in words): cimetidine 200-600 μM, sulfaphenazole 10 μM and 300 μM; for infarct size (in words): 2 hours reperfusion
Method: FIG. 2. […] Adult rat hearts were perfused in Langendorff mode for 20 minutes, then subjected to 30 minutes no-flow ischemia followed by a 2 hour reperfusion. […] (A) After 2 hours of reperfusion, hearts were frozen and assessed for infarct size using TTC. Coronary effluent was collected for 15 minutes immediately before and after ischemia and assessed for CK release. […] All procedures were approved by the Animal Care and Use Committee at The Scripps Research Institute (TSRI). […] No-flow ischemia was maintained for 30 minutes and reperfusion was accomplished by restoring flow for 15 minutes for creatine kinase (CK) release determination and dihydroethidium (DHE) staining, or 120 minutes for infarct size determination by triphenyl tetrazolium chloride (TTC) staining. Measurement of CK activity was performed using the CK EC 2.7.3.2 UV-Test kit (Sigma) as per the manufacturer's instructions. The measurement of infarct size after TTC staining was performed as described in Example 1.

[2] = test system: cytochrome oxidase subunit I; assay: Immunodetection of mitochondrial-encoded proteins after CAP infusion (Example I); parameters: species or system rabbit; details: CAP infusion for as little as 15 minutes
[3] = test system: mitochondrial respiratory chain Complex I, II, IV; assay: Oxygen consumption (respiration) of mitochondria from perfused rat hearts; details: hearts perfused with chloramphenicol for 30 minutes
Method: FIG. 4. […] (B) Mitochondrial respiration was measured by polarography. […] Error bars represent standard deviation. […] Hearts were rapidly minced in ice-cold MSE buffer (in mmol/L, mannitol 220, sucrose 70, EGTA 2, MOPS 5 (pH 7.4), and taurine 2 supplemented with 0.2% fatty acid-free bovine serum albumin (BSA)). Heart tissue was homogenized in MSE with a Polytron type tissue grinder at 11,000 rpm for 2.5 seconds followed by 2 quick strokes at 500 rpm with a loose fit Potter-Elvehjem tissue grinder. The homogenate was centrifuged at 500 g twice for 5 minutes, saving the supernatant. Mitochondria were pelleted from the supernatant by centrifugation at 3000 g twice, and the pellet was rinsed with MSE buffer. The supernatant was saved as crude cytosol. The final pellet was rinsed and resuspended in 50 μl Incubation Medium (in mmol/L, mannitol 220, sucrose 70, EGTA 1, MOPS 5 (pH 7.4), taurine 2, MgCl2 10, and KH2PO4 5, supplemented with 0.2% fatty acid-free BSA) (Scholte et al., 1997). Mitochondria were incubated for 15 minutes on wet ice and protein concentration was determined with BSA as a standard by a Bradford assay. All work was performed on wet ice at 0° C. Oxygen consumption was measured at 30° C. with a Clark type oxygen electrode (Instech) in 600 μl KCl respiration buffer (in mmol/L: KCl 140, EGTA 1, MOPS 10 (pH 7.4), MgCl2 10, and KH2PO4 5, supplemented with 0.2% fatty acid-free BSA) (Scholte et al., 1997; Chance et al., 1961; McKee et al., 1990). Complex II activity was measured using 200 μg mitochondria with succinate, 5 mM, as a substrate. […] For each complex the ADP-stimulated respiration rate (state 3) was measured after the addition of 2 mM ADP; the ADP-independent respiration rate, oligomycin-insensitive (state 4) was measured after the addition of 2 μM oligomycin; and the maximal respiration rate was measured after uncoupling the mitochondria with 2 μM FCCP. Rates were calculated as nA O2/min/mg protein after subtracting the rate that was insensitive to the inhibitors antimycin A, 1 μM, for complex III, and KCN, 1 mM, for complex IV.

[4] = test system: rabbit heart (circumflex coronary artery occlusion); assay: Rabbit circumflex coronary artery occlusion and reperfusion; assay type: in vivo; details: n=6
isolated rabbit heart = assay: Langendorff perfusion, global ischemia/reperfusion of isolated rabbit heart (infarct size by TTC, CK release)
Method: The global ischemia protocol was adapted from that of Tsuchida et al. (1994). All procedures were approved by the Animal Care and Use Committee at The Scripps Research Institute (TSRI). To obtain isolated hearts, hearts were excised from an anesthetized mammal such as a rabbit and quickly cannulated onto the Langendorff perfusion apparatus. The heart is perfused with Krebs-Ringer buffer for 15 minutes before ischemia/reperfusion episodes. No-flow ischemia is maintained for 30 minutes and reperfusion is accomplished by restoring flow for 15 minutes (unless otherwise indicated). Ischemic preconditioning can be induced by three 5 minute cycles of no-flow ischemia and reperfusion immediately preceding the regular ischemia and reperfusion. In brief, the heart was excised from the anesthetized rabbit and quickly cannulated onto the Langendorff perfusion apparatus. The heart was perfused with Krebs-Ringer buffer for 15 minutes before ischemia/reperfusion episodes. No-flow ischemia was maintained for 30 minutes and reperfusion was accomplished by restoring flow for 15 minutes (unless otherwise indicated). Ischemic preconditioning was induced by three 5 minute cycles of no-flow ischemia and reperfusion immediately preceding the regular ischemia and reperfusion. The efficacy of these interventions was verified by measurement of creatine kinase (CK) release and infarct size measurement using triphenyl tetrazolium chloride (TTC) staining (Pain et al., 2000; Downey, 2001). The measurement of infarct size was essentially identical to that detailed by Downey (2001) except for the method of quantitation. After the TTC reaction, the heart slices were scanned into TIFF files and analyzed with Adobe Photoshop 5.5. The images were digitally manipulated in an identical manner to ensure equivalent outcome. […] The histogram counts of red and white were recorded. The percent infarction was calculated as white counts divided by the sum of red plus white counts.

[5] = test system: mitochondrial-encoded proteins (CO-1, ND3); assay: Western blotting of mitochondrial-encoded proteins after CAP perfusion (Example II); parameters: species or system rat; details: perfusion with CAP for 30 minutes
[6] = test system: H9c2 and neonatal rat cardiomyocytes; assay: Hydrogen peroxide-induced apoptosis and superoxide production in cells
CYP2D2 = target: T1, CYP2D2 (Rattus norvegicus, UniProt P10634); assay: AMMC demethylase activity in CYP2D2 supersomes; details: sulfaphenazole 50 μM
T1 sequence (P10634 1-500): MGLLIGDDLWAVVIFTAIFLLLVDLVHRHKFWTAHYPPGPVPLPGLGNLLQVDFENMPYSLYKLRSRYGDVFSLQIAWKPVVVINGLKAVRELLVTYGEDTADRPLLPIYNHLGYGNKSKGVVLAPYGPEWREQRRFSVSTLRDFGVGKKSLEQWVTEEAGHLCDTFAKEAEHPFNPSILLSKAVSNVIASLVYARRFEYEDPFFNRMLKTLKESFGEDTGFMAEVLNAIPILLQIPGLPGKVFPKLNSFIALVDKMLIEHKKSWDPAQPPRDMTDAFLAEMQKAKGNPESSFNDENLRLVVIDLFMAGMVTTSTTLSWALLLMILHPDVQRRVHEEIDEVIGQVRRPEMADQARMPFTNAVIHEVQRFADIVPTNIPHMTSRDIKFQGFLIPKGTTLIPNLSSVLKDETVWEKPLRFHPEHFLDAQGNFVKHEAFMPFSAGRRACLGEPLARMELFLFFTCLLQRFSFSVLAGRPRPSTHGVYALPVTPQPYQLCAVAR

CYP2D6 = CYP2D6 (Homo sapiens, UniProt P10635); assay: AMMC demethylation by recombinant CYP2D6; assay type: biochemical; details: recombinant system
Chain of CYP2D6 (P10635 whole entry): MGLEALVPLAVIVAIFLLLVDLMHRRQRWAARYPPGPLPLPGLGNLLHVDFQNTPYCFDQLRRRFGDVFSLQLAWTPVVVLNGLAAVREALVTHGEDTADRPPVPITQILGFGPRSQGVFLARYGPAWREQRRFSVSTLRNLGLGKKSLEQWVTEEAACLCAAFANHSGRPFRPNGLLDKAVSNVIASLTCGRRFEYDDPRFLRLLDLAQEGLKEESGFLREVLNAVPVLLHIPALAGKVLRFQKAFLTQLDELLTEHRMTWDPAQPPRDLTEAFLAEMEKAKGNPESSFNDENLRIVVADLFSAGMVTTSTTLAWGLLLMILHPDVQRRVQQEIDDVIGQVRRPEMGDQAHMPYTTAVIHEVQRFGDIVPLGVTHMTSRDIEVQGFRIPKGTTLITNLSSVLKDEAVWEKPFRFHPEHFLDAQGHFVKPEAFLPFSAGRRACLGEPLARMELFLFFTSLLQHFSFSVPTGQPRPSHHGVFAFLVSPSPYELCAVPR

[7] = test system: AMMC demethylase (cytochrome P450) in rat liver microsomes; assay: Fluorometric cytochrome P450 assay, AMMC demethylation in rat liver microsomes; assay type: biochemical; details: male, Sprague-Dawley, pH 7.4, probe AMMC (30 μM), AMMC substrate, read-out: IC50, inhibition of AMMC demethylation
Method: Microsomes were isolated from rat livers (Sprague-Dawley, male, 6-8 weeks) by differential centrifugation as described by Walles and coworkers (2001). Homogenized tissue was centrifuged at 11,000 g for 30 minutes at 4° C. The supernatant was further centrifuged at 170,000 g for 60 minutes at 4° C. The resulting pellet was resuspended in KCl buffer and centrifuged at 200,000 g for 40 minutes at 4° C. The microsomal fraction was then transferred into Tris-sucrose buffer (0.25 M sucrose, 20 mM Tris buffer, 5 mM EDTA). Protein concentrations were determined by bicinchoninic acid micro assay (Pierce). Microsomal solutions were aliquoted and stored at −80° C. until further use.

[8] = mitochondria incubated with control or ischemic cytosols, H-89 48 μmol/L, genistein 25 μmol/L

Compound: O=S(=O)(NCCNC/C=C/c1ccc(Br)cc1)c1cccc2cnccc12 [H-89]
phosphorylation of p46 [1, 8]: did not affect

Compound: gentamicin sulfate
cardioprotection (isolated rat hearts; gentamicin in perfusion buffer): not cardioprotective

Compound: CN/C(=N/CCSCc1nc[nH]c1C)NC#N [cimetidine]
CK release (in words) (isolated rat hearts): reduced CK release
infarct size (in words) (isolated rat hearts): dose-dependent reduction
coronary flow after ischemia (isolated rat hearts): prevent the associated drop in coronary flow

Continued, in another order:

immunodetection of mitochondrial-encoded cytochrome oxidase I [2]: near-complete loss
Compound: O=C(N[C@H](CO)[C@H](O)c1ccc([N+](=O)[O-])cc1)C(Cl)Cl [CAP, chloramphenicol]
Complex I State 4 ([3]; −CAP 13.74 ± 6.33): 12.09 ± 4.59 n Atoms O/min/mg
Complex II State 4 ([3]; −CAP 21.70 ± 5.89): 23.04 ± 7.32 n Atoms O/min/mg
Complex II State 3 ([3]; −CAP 85.47 ± 22.2): 83.58 ± 14.4 n Atoms O/min/mg
Complex IV State 4 ([3]; −CAP 113.99 ± 21): 116.89 ± 23 n Atoms O/min/mg
Complex I State 3 ([3]; −CAP 158.57 ± 32): 162.99 ± 31 n Atoms O/min/mg
Complex IV State 3 ([3]; −CAP 209.85 ± 40): 201.09 ± 23 n Atoms O/min/mg
infarct size, of the area at risk ([4]; CAP 20 mg/kg i.v. 30 min before 30 min occlusion, 4 h reperfusion, untreated 49.3 ±17.7): 18.3%
post-ischemic hypotension (decrease in left ventricular pressure from baseline) ([4]; CAP 20 mg/kg i.v., untreated −34.2±2.3): −13.3±2.2 mm H2O
infarct size after ischemia and reperfusion (isolated rabbit heart; 100 μg/mL CAP in buffer throughout: 15 min stabilization, 30 min global ischemia, 2 h reperfusion, mean±SEM, untreated 64.1 (±4.1)): 43.1 (±6.4)
infarct size (isolated rabbit heart; CAP administered only in the last 15 minutes of the 2 hour reperfusion (control for TTC interference)): 69.2±5.7
CK release after global ischemia (isolated rabbit heart; CAP pretreatment, 100 μg/mL): reduced
levels of mitochondrial-encoded proteins and respiratory chain activity [5]: not sufficient to alter
infarct size (isolated rat hearts; CAP 300 μm before and after global no-flow ischemia (I/R+CAP), 30 min ischemia, 2 h reperfusion, SEM, n=5, untreated 43.2±3.2%): 16.0±3.6%
CK released after ischemia (isolated rat hearts; CAP administered prior to ischemia, SEM, n=5, untreated 2.25±0.28): 0.27±0.13 U/15 min
infarct size (isolated rat hearts; chloramphenicol administered immediately after ischemia (at reperfusion), n=5, untreated 43.2%): 21.7%
reduction of infarct size (isolated rat hearts; pretreatment of hearts prior to ischemia and reperfusion (summary)): about 90%
coronary flow after ischemia (isolated rat hearts): prevent the associated drop in coronary flow

inhibition of CYP2D2 activity (AMMC demethylase) (CYP2D2): did not appear to significantly inhibit
inhibition of CYP2D6 (AMMC demethylation) (CYP2D6): not inhibited
IC50 at 1 h [7]: 500 nM
Compound: Nc1ccc(S(=O)(=O)Nc2ccnn2-c2ccccc2)cc1 [sulfaphenazole]
rescue from hydrogen peroxide-induced apoptosis and superoxide production [6]: rescued
CK release (in words) (isolated rat hearts): significant reduction
infarct size (in words) (isolated rat hearts): significant reduction
coronary flow after ischemia (isolated rat hearts): prevent the associated drop in coronary flow

phosphorylation of p46 ([1]; mitochondria from an ischemic heart incubated with genistein, no cytosol): able to inhibit
phosphorylation of p46 [1, 8]: reduced phosphorylation
Compound: O=c1c(-c2ccc(O)cc2)coc2cc(O)cc(O)c12 [genistein]
